Experimental findings from ChEMBL document CHEMBL2073763, “Functional involvement of rat organic anion transporter 3 (rOat3; Slc22a8) in the renal uptake of organic anions” (J Pharmacol Exp Ther, 2002) are described below.

Holding throughout (assay type): functional, cell-based
Data set [1] addresses T1, Solute carrier family 22 member 6 (Rattus norvegicus, UniProt O35956).
T1 sequence (O35956 whole entry): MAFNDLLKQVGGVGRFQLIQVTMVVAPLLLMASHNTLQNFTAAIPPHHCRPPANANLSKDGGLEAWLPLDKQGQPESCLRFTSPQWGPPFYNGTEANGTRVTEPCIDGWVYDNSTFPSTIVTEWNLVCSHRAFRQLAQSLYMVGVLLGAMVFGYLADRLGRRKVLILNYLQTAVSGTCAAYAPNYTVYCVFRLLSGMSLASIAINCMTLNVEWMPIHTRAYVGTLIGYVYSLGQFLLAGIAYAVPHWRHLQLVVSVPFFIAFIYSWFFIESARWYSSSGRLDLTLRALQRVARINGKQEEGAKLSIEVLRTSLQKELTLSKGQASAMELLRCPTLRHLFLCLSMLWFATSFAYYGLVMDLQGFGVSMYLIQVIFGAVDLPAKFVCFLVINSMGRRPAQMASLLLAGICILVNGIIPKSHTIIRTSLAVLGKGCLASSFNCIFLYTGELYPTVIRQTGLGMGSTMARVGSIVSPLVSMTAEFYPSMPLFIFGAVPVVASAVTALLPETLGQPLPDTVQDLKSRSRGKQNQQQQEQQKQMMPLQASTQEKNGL
Put plainly: TP_TRANSPORTER: inhibition of PAH uptake in Oat1-expressing LLC-PK1 cells.

In data set [2] the target is T2, Organic anion transporter 3 (Rattus norvegicus, UniProt Q9R1U7).
T2 sequence (Q9R1U7 whole entry): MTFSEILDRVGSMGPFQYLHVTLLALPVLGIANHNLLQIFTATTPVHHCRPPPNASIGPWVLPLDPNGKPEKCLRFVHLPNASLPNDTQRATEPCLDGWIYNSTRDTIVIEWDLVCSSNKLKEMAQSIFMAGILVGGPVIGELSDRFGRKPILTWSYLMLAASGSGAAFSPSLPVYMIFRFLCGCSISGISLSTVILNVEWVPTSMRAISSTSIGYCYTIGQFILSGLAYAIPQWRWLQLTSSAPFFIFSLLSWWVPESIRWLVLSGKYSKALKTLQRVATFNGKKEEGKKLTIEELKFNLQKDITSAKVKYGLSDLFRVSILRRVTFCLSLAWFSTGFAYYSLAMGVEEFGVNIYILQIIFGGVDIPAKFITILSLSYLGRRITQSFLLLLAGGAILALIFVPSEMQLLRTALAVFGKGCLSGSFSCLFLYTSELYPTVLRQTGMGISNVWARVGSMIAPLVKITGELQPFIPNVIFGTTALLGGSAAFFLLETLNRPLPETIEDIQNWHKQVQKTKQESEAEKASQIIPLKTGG
Briefly: TP_TRANSPORTER: inhibition of Pravastatin uptake in Oat3-expressing LLC-PK1 cells.

Substrate in data set [3]: CC[C@H](C)C(=O)O[C@H]1C[C@H](O)C=C2C=C[C@H](C)[C@H](CC[C@@H](O)C[C@@H](O)CC(=O)O)[C@H]21
Put plainly: TP_TRANSPORTER: uptake in Oat3-expressing LLC-PK1 cells.

On to `CC[C@H](C)C(=O)O[C@H]1C[C@H](O)C=C2C=C[C@H](C)[C@H](CC[C@@H](O)C[C@@H](O)CC(=O)O)[C@H]21` [PRAVASTATIN], for which affinity in data set [1] was put at a Ki of 1150 µM.

In data set [2], `CC1(C)S[C@@H]2[C@H](NC(=O)Cc3ccccc3)C(=O)N2[C@H]1C(=O)O` [PENICILLIN G] returned a Ki of 52.8 µM.

Consider `O=C1OC(c2ccc(OS(=O)(=O)O)cc2)(c2ccc(OS(=O)(=O)O)cc2)c2c(Br)ccc(Br)c21` [DIBROMOSULFOPHTHALEIN], for which the Ki was 2.74 µM in data set [1] and 3.09 µM in data set [2].

With `Nc1ccc(C(=O)NCC(=O)O)cc1` [AMINOHIPPURIC ACID], the Ki in data set [2] came to 1350 µM. This counts as millimolar.

B1: Organic anion transporter 3 (Rattus norvegicus) (protein)
chain: T2 sequence (Q9R1U7 whole entry)
As for B1, in data set [3], the Km stood at 13.4 µM.
